Laboratory results published in patent publication US9604983B2, “Herbicidal 3-(2-benzyloxyphenyl)-2,4-dihydroxy-1,8-naphthyridine derivatives” (SYNGENTA LIMITED, priority 2013, dated 2017).

Key:
Assay in all cases: Post-emergence efficacy, glasshouse pot test
Format in all cases: in vivo
Conditions in all cases: post-emergence application at 1000 g/ha; evaluated after 13 days; five point scale
[1] = tested on: Echinochloa crus-galli (ECHCG)
Procedure: (§1) B1 Post-emergence Efficacy Seeds of a variety of test species are sown in standard soil in pots:—Solanum nigrum (SOLNI), Amaranthus retoflexus (AMARE), Setaria faberi (SETFA), Alopecurus myosuroides (ALOMY), Echinochloa crus-galli (ECHCG), Ipomoea hederacea (IPOHE). After 8 days cultivation (post-emergence) under controlled conditions in a glasshouse (at 24/16° C., day/night; 14 hours light; 65% humidity), the plants are sprayed with an aqueous spray solution derived from the formulation of the technical active ingredient in acetone/water (50:50) solution containing 0.5% Tween 20 (polyoxyethelyene sorbitan monolaurate, CAS RN 9005-64-5). Compounds are applied at 1000 g/ha. The test plants are then grown in a glasshouse under controlled conditions in a glasshouse (at 24/16° C., day/night; 14 hours light; 65% humidity) and watered twice daily. After 13 days, the test is evaluated for the percentage damage caused to the plant. The biological activities are shown below in Table 13, on a five point scale (5=80-100%; 4=60-79%; 3=40-59%; 2=20-39%; 1=0-19%).

Solanum nigrum (SOLNI) = tested on: Solanum nigrum (SOLNI)
Procedure: as §1

[2] = tested on: Ipomoea hederacea (IPOHE)
Procedure: as §1

Setaria faberi (SETFA) = tested on: Setaria faberi (SETFA)
Procedure: as §1

[3] = tested on: Alopecurus myosuroides (ALOMY)
Procedure: as §1

[4] = tested on: Amaranthus retoflexus (AMARE)
Procedure: as §1

C#CCn1c(=O)c(-c2c(Cl)ccc(Cl)c2OCc2ccc(Cl)cc2)c(O)c2cccnc21 [Compound 2.003]
percentage damage caused to the plant, ECHCG [1]: 5 (5=80-100%)
percentage damage caused to the plant, SOLNI (Solanum nigrum (SOLNI)): 5 (5=80-100%)
percentage damage caused to the plant, IPOHE [2]: 5 (5=80-100%)
percentage damage caused to the plant, SETFA (Setaria faberi (SETFA)): 4 (4=60-79%)
percentage damage caused to the plant, ALOMY [3]: 3 (3=40-59%)
percentage damage caused to the plant, AMARE [4]: 5 (5=80-100%)

COc1ccnc2c1c(O)c(-c1c(Cl)ccc(Cl)c1OCc1ccccc1)c(=O)n2CC(F)F [Compound 4.007]
percentage damage caused to the plant, ECHCG [1]: 3 (3=40-59%)
percentage damage caused to the plant, SOLNI (Solanum nigrum (SOLNI)): 5 (5=80-100%)
percentage damage caused to the plant, IPOHE [2]: 5 (5=80-100%)
percentage damage caused to the plant, SETFA (Setaria faberi (SETFA)): 2 (2=20-39%)
percentage damage caused to the plant, ALOMY [3]: 3 (3=40-59%)
percentage damage caused to the plant, AMARE [4]: 5 (5=80-100%)

C#CCn1c(=O)c(-c2c(Cl)ccc(Cl)c2OCc2ccc(C(F)(F)F)cc2)c(O)c2cccnc21 [Compound 2.006]
percentage damage caused to the plant, ECHCG [1]: 5 (5=80-100%)
percentage damage caused to the plant, SOLNI (Solanum nigrum (SOLNI)): 5 (5=80-100%)
percentage damage caused to the plant, IPOHE [2]: 5 (5=80-100%)
percentage damage caused to the plant, SETFA (Setaria faberi (SETFA)): 5 (5=80-100%)
percentage damage caused to the plant, ALOMY [3]: 4 (4=60-79%)
percentage damage caused to the plant, AMARE [4]: 5 (5=80-100%)

C#CCn1c(=O)c(-c2c(F)ccc(Cl)c2OCc2ccccc2)c(O)c2nccnc21 [Compound 6.003]
percentage damage caused to the plant, ECHCG [1]: 4 (4=60-79%)
percentage damage caused to the plant, SOLNI (Solanum nigrum (SOLNI)): 5 (5=80-100%)
percentage damage caused to the plant, IPOHE [2]: 5 (5=80-100%)
percentage damage caused to the plant, SETFA (Setaria faberi (SETFA)): 5 (5=80-100%)
percentage damage caused to the plant, ALOMY [3]: 4 (4=60-79%)
percentage damage caused to the plant, AMARE [4]: 5 (5=80-100%)

C#CCn1c(=O)c(-c2c(F)ccc(Cl)c2OCc2ccccc2)c(O)c2c(OC)ccnc21 [Compound 6.002]
percentage damage caused to the plant, ECHCG [1]: 5 (5=80-100%)
percentage damage caused to the plant, SOLNI (Solanum nigrum (SOLNI)): 5 (5=80-100%)
percentage damage caused to the plant, IPOHE [2]: 5 (5=80-100%)
percentage damage caused to the plant, SETFA (Setaria faberi (SETFA)): 5 (5=80-100%)
percentage damage caused to the plant, ALOMY [3]: 5 (5=80-100%)
percentage damage caused to the plant, AMARE [4]: 5 (5=80-100%)

Cc1ccc(COc2c(Cl)ccc(Cl)c2-c2c(O)c3cccnc3n(CC(F)F)c2=O)cc1 [Compound 4.004]
percentage damage caused to the plant, ECHCG [1]: 2 (2=20-39%)
percentage damage caused to the plant, SOLNI (Solanum nigrum (SOLNI)): 5 (5=80-100%)
percentage damage caused to the plant, IPOHE [2]: 5 (5=80-100%)
percentage damage caused to the plant, SETFA (Setaria faberi (SETFA)): 1 (1=0-19%)
percentage damage caused to the plant, ALOMY [3]: 2 (2=20-39%)
percentage damage caused to the plant, AMARE [4]: 5 (5=80-100%)

O=c1c(-c2c(Cl)ccc(Cl)c2OCc2ccc(Cl)cc2)c(O)c2cccnc2n1CC(F)F [Compound 4.003]
percentage damage caused to the plant, ECHCG [1]: 2 (2=20-39%)
percentage damage caused to the plant, SOLNI (Solanum nigrum (SOLNI)): 5 (5=80-100%)
percentage damage caused to the plant, IPOHE [2]: 5 (5=80-100%)
percentage damage caused to the plant, SETFA (Setaria faberi (SETFA)): 1 (1=0-19%)
percentage damage caused to the plant, ALOMY [3]: 1 (1=0-19%)
percentage damage caused to the plant, AMARE [4]: 5 (5=80-100%)

O=c1c(-c2cccc(Cl)c2OCc2ccccc2)c(O)c2nccnc2n1CC(F)F [Compound 12.003]
percentage damage caused to the plant, ECHCG [1]: 5 (5=80-100%)
percentage damage caused to the plant, SOLNI (Solanum nigrum (SOLNI)): 5 (5=80-100%)
percentage damage caused to the plant, IPOHE [2]: 5 (5=80-100%)
percentage damage caused to the plant, SETFA (Setaria faberi (SETFA)): 5 (5=80-100%)
percentage damage caused to the plant, ALOMY [3]: 2 (2=20-39%)
percentage damage caused to the plant, AMARE [4]: 5 (5=80-100%)

COc1ccnc2c1c(O)c(-c1c(F)ccc(Cl)c1OCc1ccccc1)c(=O)n2CC(F)F [Compound 8.002]
percentage damage caused to the plant, ECHCG [1]: 4 (4=60-79%)
percentage damage caused to the plant, SOLNI (Solanum nigrum (SOLNI)): 5 (5=80-100%)
percentage damage caused to the plant, IPOHE [2]: 5 (5=80-100%)
percentage damage caused to the plant, SETFA (Setaria faberi (SETFA)): 4 (4=60-79%)
percentage damage caused to the plant, ALOMY [3]: 4 (4=60-79%)
percentage damage caused to the plant, AMARE [4]: 5 (5=80-100%)

CC(C)C(=O)Oc1c(-c2c(Cl)ccc(Cl)c2OCc2ccccc2)c(=O)n(CC(F)F)c2nccnc12 [Compound 3.008]
percentage damage caused to the plant, ECHCG [1]: 5 (5=80-100%)
percentage damage caused to the plant, SOLNI (Solanum nigrum (SOLNI)): 5 (5=80-100%)
percentage damage caused to the plant, IPOHE [2]: 5 (5=80-100%)
percentage damage caused to the plant, SETFA (Setaria faberi (SETFA)): 5 (5=80-100%)
percentage damage caused to the plant, ALOMY [3]: 4 (4=60-79%)
percentage damage caused to the plant, AMARE [4]: 5 (5=80-100%)

C#CCn1c(=O)c(-c2c(Cl)ccc(Cl)c2OCc2ccc(C)cc2)c(O)c2cccnc21 [Compound 2.004]
percentage damage caused to the plant, ECHCG [1]: 4 (4=60-79%)
percentage damage caused to the plant, SOLNI (Solanum nigrum (SOLNI)): 5 (5=80-100%)
percentage damage caused to the plant, IPOHE [2]: 5 (5=80-100%)
percentage damage caused to the plant, SETFA (Setaria faberi (SETFA)): 4 (4=60-79%)
percentage damage caused to the plant, ALOMY [3]: 4 (4=60-79%)
percentage damage caused to the plant, AMARE [4]: 5 (5=80-100%)

C#CCn1c(=O)c(-c2c(Cl)ccc(Cl)c2OCc2ccccc2)c(OC(=O)C(C)C)c2nccnc21 [Compound 1.008]
percentage damage caused to the plant, ECHCG [1]: 5 (5=80-100%)
percentage damage caused to the plant, SOLNI (Solanum nigrum (SOLNI)): 5 (5=80-100%)
percentage damage caused to the plant, IPOHE [2]: 5 (5=80-100%)
percentage damage caused to the plant, SETFA (Setaria faberi (SETFA)): 5 (5=80-100%)
percentage damage caused to the plant, ALOMY [3]: 5 (5=80-100%)
percentage damage caused to the plant, AMARE [4]: 5 (5=80-100%)

C#CCn1c(=O)c(-c2c(F)ccc(Cl)c2OCc2ccccc2)c(OC(=O)C(C)C)c2cccnc21 [Compound 5.001]
percentage damage caused to the plant, ECHCG [1]: 3 (3=40-59%)
percentage damage caused to the plant, SOLNI (Solanum nigrum (SOLNI)): 5 (5=80-100%)
percentage damage caused to the plant, IPOHE [2]: 5 (5=80-100%)
percentage damage caused to the plant, SETFA (Setaria faberi (SETFA)): 2 (2=20-39%)
percentage damage caused to the plant, ALOMY [3]: 1 (1=0-19%)
percentage damage caused to the plant, AMARE [4]: 5 (5=80-100%)

O=c1c(-c2c(Cl)ccc(Cl)c2OCc2ccc(C(F)(F)F)cc2)c(O)c2cccnc2n1CC(F)F [Compound 4.006]
percentage damage caused to the plant, ECHCG [1]: 2 (2=20-39%)
percentage damage caused to the plant, SOLNI (Solanum nigrum (SOLNI)): 5 (5=80-100%)
percentage damage caused to the plant, IPOHE [2]: 5 (5=80-100%)
percentage damage caused to the plant, SETFA (Setaria faberi (SETFA)): 2 (2=20-39%)
percentage damage caused to the plant, ALOMY [3]: 2 (2=20-39%)
percentage damage caused to the plant, AMARE [4]: 5 (5=80-100%)

C#CCn1c(=O)c(-c2c(Cl)ccc(Cl)c2OCc2ccccc2)c(OC(=O)C(C)C)c2cccnc21 [Compound 1.001, [3-(2-Benzyloxy-3,6-dichloro-phenyl)-2-oxo-1-prop-2-ynyl-1,8-naph-thyridin-4-yl]2-methylpropanoate]
percentage damage caused to the plant, ECHCG [1]: 4 (4=60-79%)
percentage damage caused to the plant, SOLNI (Solanum nigrum (SOLNI)): 5 (5=80-100%)
percentage damage caused to the plant, IPOHE [2]: 5 (5=80-100%)
percentage damage caused to the plant, SETFA (Setaria faberi (SETFA)): 4 (4=60-79%)
percentage damage caused to the plant, ALOMY [3]: 2 (2=20-39%)
percentage damage caused to the plant, AMARE [4]: 5 (5=80-100%)

CC(C)C(=O)Oc1c(-c2c(F)ccc(Cl)c2OCc2ccccc2)c(=O)n(CC(F)F)c2nccnc12 [Compound 7.003]
percentage damage caused to the plant, ECHCG [1]: 2 (2=20-39%)
percentage damage caused to the plant, SOLNI (Solanum nigrum (SOLNI)): 5 (5=80-100%)
percentage damage caused to the plant, IPOHE [2]: 5 (5=80-100%)
percentage damage caused to the plant, SETFA (Setaria faberi (SETFA)): 5 (5=80-100%)
percentage damage caused to the plant, ALOMY [3]: 2 (2=20-39%)
percentage damage caused to the plant, AMARE [4]: 5 (5=80-100%)

CC(C)C(=O)Oc1c(-c2cccc(Cl)c2OCc2ccccc2)c(=O)n(CC(F)F)c2ncccc12 [Compound 11.001]
percentage damage caused to the plant, ECHCG [1]: 1 (1=0-19%)
percentage damage caused to the plant, SOLNI (Solanum nigrum (SOLNI)): 5 (5=80-100%)
percentage damage caused to the plant, IPOHE [2]: 5 (5=80-100%)
percentage damage caused to the plant, SETFA (Setaria faberi (SETFA)): 1 (1=0-19%)
percentage damage caused to the plant, ALOMY [3]: 1 (1=0-19%)
percentage damage caused to the plant, AMARE [4]: 5 (5=80-100%)
